Series [1] concerns Mus musculus. The experiment in a line: In vivo inhibition of DDP4 in ICR mouse assessed as decrease in enzyme activity in serum at 200 mg/kg,po and measured at 2 hrs using Gly-Pro-AMC as substrate by fluorescence based microplate reader assay. The series is classed as functional, organism-based.
In series [2] the test system is Mus musculus. The experiment in a line: In vivo inhibition of DDP4 in ICR mouse assessed as decrease in enzyme activity in serum at 200 mg/kg,po and measured at 4 hrs using Gly-Pro-AMC as substrate by fluorescence based microplate reader assay. The series is classed as functional, organism-based.
Series [3] relates to Mus musculus. In words: In vivo inhibition of DDP4 in ICR mouse assessed as decrease in enzyme activity in serum at 200 mg/kg,po and measured after 8 hrs using Gly-Pro-AMC as substrate by fluorescence based microplate reader assay. The series is classed as functional, organism-based.
Series [4] concerns Mus musculus. In words: In vivo inhibition of DDP4 in ICR mouse assessed as decrease in enzyme activity in ileum at 200 mg/kg,po and measured after 8 hrs using Gly-Pro-AMC as substrate by fluorescence based microplate reader assay. The series is classed as functional, organism-based.
The subject of series [5] is Mus musculus. The experiment in a line: In vivo inhibition of DDP4 in ICR mouse assessed as decrease in enzyme activity in ileum at 30 mg/kg,po and measured after 8 hrs using Gly-Pro-AMC as substrate by fluorescence based microplate reader assay. The series is classed as functional, organism-based.
Series [6] concerns Mus musculus. The experiment in a line: Induction of gut restriction in overnight fasted ICR mouse assessed as effect on gallbladder-filling by measuring gallbladder volume at 50 mg/kg, po and measured after 4 hrs by Vernier caliper analysis. The series is classed as functional, organism-based.
Series [7] concerns Mus musculus. The experiment in a line: Induction of gut restriction in overnight fasted ICR mouse assessed as effect on gallbladder-filling by measuring bile weight at 50 mg/kg, po and measured after 4 hrs by Vernier caliper analysis. The series is classed as functional, organism-based.
The target in series [8] is T1, G-protein coupled bile acid receptor 1 (Homo sapiens, UniProt Q8TDU6).
T1 sequence (Q8TDU6 whole entry): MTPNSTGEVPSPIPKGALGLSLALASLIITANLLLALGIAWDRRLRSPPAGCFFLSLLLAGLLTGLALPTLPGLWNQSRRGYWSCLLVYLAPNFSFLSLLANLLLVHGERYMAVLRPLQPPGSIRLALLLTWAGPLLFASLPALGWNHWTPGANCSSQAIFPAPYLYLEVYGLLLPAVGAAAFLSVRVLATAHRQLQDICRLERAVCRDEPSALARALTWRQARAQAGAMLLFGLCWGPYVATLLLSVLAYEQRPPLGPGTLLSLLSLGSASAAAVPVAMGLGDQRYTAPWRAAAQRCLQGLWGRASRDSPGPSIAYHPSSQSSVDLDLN
In words: Agonist activity at human TGR5 expressed in human HEK293 cells co-expressing CRE-driven luciferase reporter gene assessed as luciferase activity incubated for 5.5 hrs by Steady-Glo based luciferase assay. The series is classed as functional, cell-based.

Series [9] has as its target T2, G-protein coupled bile acid receptor 1 (Mus musculus, UniProt Q80SS6).
T2 sequence (Q80SS6 whole entry): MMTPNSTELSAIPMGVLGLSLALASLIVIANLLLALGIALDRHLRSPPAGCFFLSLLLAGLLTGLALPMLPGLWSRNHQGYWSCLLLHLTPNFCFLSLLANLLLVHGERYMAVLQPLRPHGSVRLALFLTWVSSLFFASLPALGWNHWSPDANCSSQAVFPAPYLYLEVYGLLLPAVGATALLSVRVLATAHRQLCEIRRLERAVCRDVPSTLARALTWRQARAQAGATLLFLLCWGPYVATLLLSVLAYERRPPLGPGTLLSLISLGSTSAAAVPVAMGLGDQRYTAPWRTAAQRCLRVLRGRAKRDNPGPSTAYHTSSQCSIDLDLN
The experiment in a line: Agonist activity at mouse TGR5 expressed in human HEK293 cells co-expressing CRE-driven luciferase reporter gene assessed as luciferase activity incubated for 5.5 hrs by Steady-Glo based luciferase assay. The series is classed as functional, cell-based. A general note: A reporter such as luciferase makes a cellular process visible.

For a further series, the target named is Dipeptidyl peptidase 4 (Mus musculus, UniProt P28843). The experiment in a line: Inhibition of mouse serum DPP4 assessed as cleavage of substrate by measuring AMC release using Gly-Pro-AMC as substrate by fluorescence based microplate reader assay. The series is classed as cell-free.
The nature of series [10]: Water solubility at pH 6.8. The series is classed as physicochemical.
The nature of series [11]: Water solubility at pH 7.4. The series is classed as physicochemical.
The nature of series [12]: Apparent permeability across apical to basolateral side in human Caco-2 cells at 20 uM and measured upto 95 mins by LC-MS/MS analysis. The series is classed as ADME, cell-based.
Series [13] is described as follows: Apparent permeability across basolateral to apical side in human Caco-2 cells at 20 uM and measured upto 95 mins by LC-MS/MS analysis. The series is classed as ADME, cell-based.
The nature of series [14]: Cmax in overnight-fasted ICR mouse ileum at 30 mg/kg, po and measured upto 8 hrs by LC-MS/MS analysis. The series is classed as ADME, organism-based. Details: dose 30 mg/kg, time < 8 hrs, route po.
The nature of series [15]: Cmax in overnight-fasted ICR mouse plasma at 30 mg/kg, po and measured upto 8 hrs by LC-MS/MS analysis. The series is classed as ADME, organism-based. Details: dose 30 mg/kg, time < 8 hrs, route po.
Series [16] in a line: Cmax in overnight-fasted ICR mouse Gall bladder at 30 mg/kg, po and measured upto 8 hrs by LC-MS/MS analysis. The series is classed as ADME, organism-based. Details: dose 30 mg/kg, time < 8 hrs, route po.
The test system of series [17] is Mus musculus. In words: In vivo inhibition of DDP4 in ICR mouse assessed as decrease in enzyme activity in ileum at 50 mg/kg,po and measured after 8 hrs using Gly-Pro-AMC as substrate by fluorescence based microplate reader assay. The series is classed as functional, organism-based.
The test system of series [18] is Mus musculus. The experiment in a line: In vivo inhibition of DDP4 in ICR mouse assessed as decrease in enzyme activity in ileum at 25 mg/kg,po and measured after 8 hrs using Gly-Pro-AMC as substrate by fluorescence based microplate reader assay. The series is classed as functional, organism-based.
In series [19] the test system is Mus musculus. In words: In vivo agonist activity at TGR5 in overnight fasted ICR mouse assessed as increase in GLP-1 activity in serum at 100 mg/kg,po preincubated with sitagliptin at 30 mg/kg,po for one hr followed by compound addition and measured after 8 hrs by ELISA. The series is classed as functional, organism-based. (An ELISA detects its analyte on a solid surface through an enzyme-linked reagent.)

Series [20] deals with Mus musculus. The experiment in a line: Anti-colitis activity against DSS-induced ulcerative colitis BALB/c mouse model assessed as suppression of DSS induced weight loss at 30 mg/kg,po for 10 days. The series is classed as functional, organism-based. The settings on record: time 10.0 day.
Series [21] relates to Mus musculus. In words: Anti-colitis activity against DSS-induced ulcerative colitis BALB/c mouse model assessed as suppression of DSS induced diarrhea at 30 mg/kg,po for 10 days. The series is classed as functional, organism-based. Particulars: time 10.0 day.
Series [22] deals with Mus musculus. In words: Anti-colitis activity against DSS-induced ulcerative colitis BALB/c mouse model assessed as suppression of DSS induced fecal occult blood at 30 mg/kg,po for 10 days. The series is classed as functional, organism-based. The settings on record: time 10.0 day.
The subject of series [23] is Mus musculus. The experiment in a line: Anti-colitis activity against DSS-induced ulcerative colitis BALB/c mouse model assessed as reduction in body weight loss by measuring DAI score at 30 mg/kg,po and measured after 5 to 10 days. The series is classed as functional, organism-based. The settings on record: time 5-10 day.
Series [24] relates to Mus musculus. The experiment in a line: Anti-colitis activity against DSS-induced ulcerative colitis BALB/c mouse model assessed as reduction in stool softness by measuring DAI score at 30 mg/kg,po and measured after 5 to 10 days. The series is classed as functional, organism-based. The settings on record: time 5-10 day.
Series [25] deals with Mus musculus. In words: Anti-colitis activity against DSS-induced ulcerative colitis BALB/c mouse model assessed as reduction in fecal occult blood by measuring DAI score at 30 mg/kg,po and measured after 5 to 10 days. Particulars: time 5-10 day. The series is classed as functional, organism-based.
Series [26] has as its system Mus musculus. In words: Anti-colitis activity against DSS-induced ulcerative colitis BALB/c mouse model assessed as recovery of colon length at 30 mg/kg,po for 10 days. The series is classed as functional, organism-based. The settings on record: time 10.0 day.
For series [27], the system named is Mus musculus. The experiment in a line: Anti-colitis activity against DSS-induced ulcerative colitis BALB/c mouse model assessed as decrease in inflammatory cell infiltration at 30 mg/kg,po for 10 days by Hematoxylin and eosin staining based microscopy. The series is classed as functional, organism-based. Particulars: time 10.0 day.
For series [28], the system named is Mus musculus. The experiment in a line: Anti-colitis activity against DSS-induced ulcerative colitis BALB/c mouse model assessed as recovery of tissue damage at 30 mg/kg,po for 10 days by Hematoxylin and eosin staining based microscopy. Particulars: time 10.0 day. The series is classed as functional, organism-based.
Series [29] has as its system Mus musculus. The experiment in a line: Anti-colitis activity against DSS-induced ulcerative colitis BALB/c mouse model assessed as decrease in histological score at 30 mg/kg,po for 10 days by Hematoxylin and eosin staining based microscopy. The series is classed as functional, organism-based. The settings on record: time 10.0 day.
The test system of series [30] is Mus musculus. The experiment in a line: Induction of gut restriction in overnight fasted ICR mouse assessed as effect on gallbladder-filling by measuring gallbladder volume at 30 to 200 mg/kg, po and measured after 4 hrs by Vernier caliper analysis. The series is classed as functional, organism-based. The settings on record: dose 30-200 mg/kg.
For series [31], the system named is Mus musculus. In words: Induction of gut restriction in overnight fasted ICR mouse assessed as effect on gallbladder-filling by measuring bile weight at 30 to 200 mg/kg, po and measured after 4 hrs by Vernier caliper analysis. The series is classed as functional, organism-based. Particulars: dose 30-200 mg/kg.

Broadly, the EC50 is the concentration giving half of the maximal effect. One may read the IC50 as the concentration that inhibits the measured activity by half. In general, solubility refers to the dissolved amount per volume that the medium holds. Read a high solubility as a readily soluble substance. One may read the Papp A→B as the apparent permeability from the apical to the basolateral side of a cell layer. By Papp B→A is commonly meant how fast a substance crosses the layer from the basolateral side. Broadly, the Cmax is the peak of the concentration-time curve.

Active and inactive are the calls of the source. The rule behind the calls is not given here.

Chain of Dipeptidyl peptidase 4 (P28843 whole entry): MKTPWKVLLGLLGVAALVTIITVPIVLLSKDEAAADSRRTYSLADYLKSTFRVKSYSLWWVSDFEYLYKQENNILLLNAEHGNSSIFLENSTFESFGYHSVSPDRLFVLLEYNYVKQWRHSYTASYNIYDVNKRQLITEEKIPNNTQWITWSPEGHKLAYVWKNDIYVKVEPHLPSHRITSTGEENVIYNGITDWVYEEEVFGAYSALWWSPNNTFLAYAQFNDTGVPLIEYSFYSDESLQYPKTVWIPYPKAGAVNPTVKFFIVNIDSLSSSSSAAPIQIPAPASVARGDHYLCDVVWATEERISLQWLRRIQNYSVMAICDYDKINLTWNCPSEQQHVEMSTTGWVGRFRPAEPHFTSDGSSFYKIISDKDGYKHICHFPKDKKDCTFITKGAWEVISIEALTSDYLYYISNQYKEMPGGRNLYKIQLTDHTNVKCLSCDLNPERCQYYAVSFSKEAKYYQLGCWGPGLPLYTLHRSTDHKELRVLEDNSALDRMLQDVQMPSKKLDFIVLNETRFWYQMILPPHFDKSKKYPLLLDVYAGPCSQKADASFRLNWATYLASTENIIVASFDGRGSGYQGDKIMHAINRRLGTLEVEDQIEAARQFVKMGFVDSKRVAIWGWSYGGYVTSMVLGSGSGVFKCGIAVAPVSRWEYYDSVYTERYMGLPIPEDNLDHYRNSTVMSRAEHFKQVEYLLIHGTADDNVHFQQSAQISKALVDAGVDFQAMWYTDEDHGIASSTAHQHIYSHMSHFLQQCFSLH

On to `N[C@@H](CC(=O)N1CCn2c(nnc2C(F)(F)F)C1)Cc1cc(F)c(F)cc1F`, for which the inhibition entry in the series with Mus musculus [1], in the series on Mus musculus [2], in the series on Mus musculus [3], with Mus musculus [4] and in the series with Mus musculus [5] was “Active” throughout.

Turning to `O=C(c1cnccc1Oc1cc(Cl)ccc1Cl)N1CCN(C2CC2)c2ccccc21`, the outcome with Mus musculus [6] and with Mus musculus [7] was inactive.

On to `N[C@@H](CC(=O)N1CCCN(CC(=O)NCCOCCOCCOCCOCCOCCOCCOCCNC(=O)CCc2cc(Cl)c(Oc3ccsc3C(=O)N3CCN(C4CC4)c4ccccc43)cc2Cl)C(=O)C1Cc1ccccc1)Cc1cc(F)c(F)cc1F` (mixture of isomers), for which the EC50 in series [8] came to 3.6 nM; in series [9] it was 2.1 nM. Also, the half-inhibitory concentration (IC50) at Dipeptidyl peptidase 4 stood at 103 nM. This compound also registered a solubility in [10] of 20 µM.

As for `CC1C(=O)N(CC(=O)N(CCOCCOCCOCCOCCOCCOCCOCCOCCN(CC(=O)O)C(=O)CCc2cc(Cl)c(Oc3ccsc3C(=O)N3CCN(C4CC4)c4ccccc43)cc2Cl)CC(=O)O)CCCN1C(=O)C[C@H](N)Cc1cc(F)c(F)cc1F` (mixture of isomers), the EC50 in [8] was determined as 48.5 nM; in series [9], 3.4 nM. Besides, the IC50 on Dipeptidyl peptidase 4 came out at 21.5 nM. In addition, the solubility in [10] and in series [11] was over 100 µM each time. For the same compound, in [12], the Papp A→B at 1.583 h, 20 µM was 0.01 ×10⁻⁶ cm/s. For the same compound, in series [13], the Papp B→A at 1.583 h, 20 µM amounted to 0.01 ×10⁻⁶ cm/s. Moreover, the highest concentration (Cmax) was 11700 ng/mL in series [14], 8.3 ng/mL in series [15] and 820 ng/mL in series [16]. For the same compound, the inhibition result in the series on Mus musculus [1] and with Mus musculus [2] was “inactive” throughout. In addition, the inhibition result in the series with Mus musculus [3], in the series with Mus musculus [4], with Mus musculus [17] and in the series on Mus musculus [18] was “Active” each time. The outcome in the series with Mus musculus [19], in the series with Mus musculus [20], in the series with Mus musculus [21], in the series with Mus musculus [22], with Mus musculus [23] and in the series with Mus musculus [24] was Active. Further, the result in the series with Mus musculus [25], with Mus musculus [26], with Mus musculus [27], with Mus musculus [28], with Mus musculus [29] and with Mus musculus [30] was Active. Also, the outcome in the series on Mus musculus [31] was Active.

For `N[C@@H](CC(=O)N1CCCN(CC(=O)NCCOCCOCCOCCOCCOCCOCCNC(=O)CCc2cc(Cl)c(Oc3ccsc3C(=O)N3CCN(C4CC4)c4ccccc43)cc2Cl)C(=O)C1Cc1ccccc1)Cc1cc(F)c(F)cc1F` (mixture of isomers), the values for the EC50 in series [8] and in [9] were 3.7 nM and 2.3 nM, respectively. Moreover, at Dipeptidyl peptidase 4, the half-inhibitory concentration (IC50) turned out to be 112 nM. The same compound came in with a solubility in [10] of 20 µM.

The values are drawn from ChEMBL document CHEMBL5338718, “Design and exploration of gut-restricted bifunctional molecule with TGR5 agonistic and DPP4 inhibitory effects for treating ulcerative colitis” (Eur J Med Chem, 2022).
